Measured values from patent US10800757B2, “Inhibitors of TRPC6” (Boehringer Ingelheim International GmbH, priority 2017, dated 2020).

Target: TRPC6 (Homo sapiens (Human), UniProt Q9Y210)
Assay: High throughput screening assay: fluorescent calcium (Fluo4/AM) assay of TRPC6 channel activation by GSK1702934A in HEK293/TREx cells
Assay type: cell-based
Conditions: HEK293/TREx cells stably transfected with TRPC6; agonist GSK1702934A; 7 concentrations 20 μM to 0.027 μM, triplicate
Description: This screening assay measures TRPC6 (transient receptor potential cation channel, subfamily C, member 6) ion channel activation via addition either of the commercially available DAG ligand analogue OAG (1-oleoyl-2-acetyl-sn-glycerol) or of the TRPC6 agonist 1-[1-(4,5,6,7,8-pentahydrocyclohepta[2,1-d]thiophen-2-ylcarbonyl)-4-piperidyl]-3-hydrobenzimidazol-2-one (GSK1702934A). The assay utilizes a FLIPR fluorescent calcium sensor 4-(6-Acetoxymethoxy-2,7-difluoro-3-oxo-9-xanthenyl)-4′-methyl-2,2′-(ethylenedioxy)dianiline-N,N,N′,N′-tetraacetic acid tetrakis(acetoxymethyl) ester (Fluo4/AM) […]. Changes (increases) in intracellular membrane calcium concentration potential as measured by the fluorescent signal increase during membrane depolarization provide a measurement of channel activity.
The commercially available HEK293/TREx line (Invitrogen) was stably transfected with a TRPC6 construct and screened by conventional calcium imaging to find clones with TRPC6 expression following stimulation with 1 μg/ml tetracycline. These cells were maintained in the growth medium recommended by the manufacturer supplemented with 100 μg/ml hygromycin to promote retention of the TRPC6 construct. After growing to near confluency, cells were plated at a density of ^˜35,000 cells/well in 384 well CellBind plates (Corning) in the presence of 1 μg/ml tetracycline, and allowed to grow for 20-30 hrs. A nearly confluent monolayer resulted. Growth media was removed from the wells and cells were then loaded with […] Fluo4/AM diluted in Ringer's Solution (6.5 g NaCl, 0.42 g KCl, 0.25 g CaCl2) and 0.2 g of sodium bicarbonate; pH 7.4) supplemented with 1% Pluronic F-127 to a final concentration of 0.5 μM and incubated for 60 min, at room temperature. Dye solution was then removed from the cells by inverting plates with a sharp flick, and replaced with 25 μl Ringer's. Following ^˜0.5 hour for recovery from loading, cells were assayed using the Hamamatsu FDSS 6000 system, which permitted illumination at 485 nm. Frames were acquired at a rate of 0.2 Hz. During the assay, the plates were continuously vortexed, with pipette mixing of wells following addition of each reagent. For the screening assay, 26 μl of a diluted compound stock (at 50 μM) was added to each well for 2 minutes following the collection of a short (4 frame) baseline. 13 μl of agonist solution consisting of 125 nM GSK1702934A diluted in high-Ca2+Ringer solution (containing 90 mm Ca2+) was then added to each well, achieving a final concentration of 20 mm Ca2+ and 10 μM test compound. Data was collected for ^˜3 minutes following addition of high Ca2+Ringer. The fluorescent ratio for each well was divided by the initial fluorescent intensity for that well and the overall response was determined by averaging the fluorescent ratio of the last 4 frames acquired during the experiment excepting the final frame. Negative and Positive controls were included on each plate. Negative controls wells consisted of HEK293/TREx TRPC6 cells exposed to assay buffer and agonist solution, but no test compound. Positive control consisted of wells consisted of HEK293/TREx TRPC6 cells exposed to 25 μM 3-[(2-chlorophenoxy)methyl]phenyl piperidyl ketone (Chembridge) diluted in Ringer's solution and agonist solution. These controls defined zero percent and 100 percent block respectively, and intensity of each well was normalized to these values.
Compounds were tested in triplicate at all concentrations. Standard software was used to fit IC50 curves.

Chain of TRPC6 (Q9Y210 whole entry, species assumed): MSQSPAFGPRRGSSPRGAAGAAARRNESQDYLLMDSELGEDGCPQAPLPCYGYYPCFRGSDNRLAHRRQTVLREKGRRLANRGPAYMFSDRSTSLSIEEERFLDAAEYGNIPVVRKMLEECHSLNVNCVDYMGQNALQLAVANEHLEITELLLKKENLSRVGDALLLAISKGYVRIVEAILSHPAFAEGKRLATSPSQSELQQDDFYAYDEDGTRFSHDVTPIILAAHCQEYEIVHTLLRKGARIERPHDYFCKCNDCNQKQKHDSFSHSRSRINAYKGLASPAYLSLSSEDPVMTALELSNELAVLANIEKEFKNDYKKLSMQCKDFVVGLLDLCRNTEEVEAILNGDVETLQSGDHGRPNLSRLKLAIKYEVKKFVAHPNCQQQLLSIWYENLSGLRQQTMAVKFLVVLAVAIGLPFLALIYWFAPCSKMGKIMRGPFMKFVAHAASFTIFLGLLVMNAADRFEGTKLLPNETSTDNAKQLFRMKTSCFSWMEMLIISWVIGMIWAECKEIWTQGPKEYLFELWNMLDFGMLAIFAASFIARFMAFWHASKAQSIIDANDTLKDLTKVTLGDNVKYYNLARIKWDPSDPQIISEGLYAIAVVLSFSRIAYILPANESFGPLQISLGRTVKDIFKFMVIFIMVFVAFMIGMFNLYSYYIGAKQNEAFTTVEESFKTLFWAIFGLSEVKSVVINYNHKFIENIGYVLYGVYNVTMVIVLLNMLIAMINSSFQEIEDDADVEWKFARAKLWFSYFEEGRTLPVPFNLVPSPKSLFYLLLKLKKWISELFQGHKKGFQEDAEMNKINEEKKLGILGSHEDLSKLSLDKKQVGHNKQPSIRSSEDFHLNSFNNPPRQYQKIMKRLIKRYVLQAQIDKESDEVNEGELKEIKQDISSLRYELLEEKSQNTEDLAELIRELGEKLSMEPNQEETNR

SMILES | IC50 [µM]
COc1cc(N)ncc1N1CCN(C(=O)c2ccc(Oc3ccccc3)cn2)[C@@H]([C@@H](C)O)C1 [Compound 50, (1R)-1-[(2R)-4-(6-amino-4-methoxypyridin-3-yl)-1-(5-phenoxypyridine-2-carbonyl)piperazin-2-yl]ethan-1-ol] | 0.047
COc1cc(C(=O)N2C3CCC2CN(c2cnc(N)cc2OC)C3)ncc1Oc1ccccc1 [Compound 51, [3-(6-Amino-4-methoxy-pyridin-3-yl)-3,8-diaza-bicyclo[3.2.1]oct-8-yl]-(4-methoxy-5-phenoxy-pyridin-2-yl)-methanone] | 0.29
COc1cc(C(=O)N2CCC(c3cnc(N)cc3OC)CC2)ncc1OCCc1ccccc1 [Compound 52, (6-Amino-4-methoxy-3′,4′,5′,6′-tetrahydro-2′H-[3,4′]bipyridinyl-1′-yl)-(4-methoxy-5-phenethyloxy-pyridin-2-yl)-methanone] | 0.19
COc1cc(C(=O)N2CCC(c3cnc(N)cc3OC)CC2)ncc1OCC1CCC1 [Compound 53, (6-Amino-4-methoxy-3′,4′,5′,6′-tetrahydro-2′H-[3,4′]bipyridinyl-1′-yl)-(5-cyclobutylmethoxy-4-methoxy-pyridin-2-yl)-methanone] | 0.21
COc1cc(C(=O)N2CCC(c3ccc(N)nn3)CC2)ncc1Oc1ccc(OC(F)F)cc1 [Compound 54, [4-(6-Amino-pyridazin-3-yl)-piperidin-1-yl]-[5-(4-difluoromethoxy-phenoxy)-4-methoxy-pyridin-2-yl]-methanone] | 0.22
COC[C@H]1CN(c2cnc(N)cc2OC)CCN1C(=O)c1cc(OC)c(Oc2ccc(F)cc2)cn1 [Compound 55, [(R)-4-(6-Amino-4-methoxy-pyridin-3-yl)-2-methoxymethyl-piperazin-1-yl]-[5-(4-fluoro-phenoxy)-4-methoxy-pyridin-2-yl]-methanone] | 0.22
COc1cc(C(=O)N2CCC(c3nnc(N)cc3OC)CC2)ncc1Oc1ccc(C(F)(F)F)cc1 [Compound 56, [4-(6-Amino-4-methoxy-pyridazin-3-yl)-piperidin-1-yl]-[4-methoxy-5-(4-trifluoromethyl-phenoxy)-pyridin-2-yl]-methanone] | 0.29
COc1cc(C(=O)N2CCC(c3ccc(N)nn3)CC2)ncc1OCc1ccccc1F [Compound 57, [4-(6-Amino-pyridazin-3-yl)-piperidin-1-yl]-[5-(2-fluoro-benzyloxy)-4-methoxy-pyridin-2-yl]-methanone] | 0.3
COc1cc(N)ncc1N1CCN(C(=O)c2ccc(Oc3ccccc3)cn2)[C@@H]([C@H](C)O)C1 [Compound 58, (1S)-1-[(2R)-4-(6-amino-4-methoxypyridin-3-yl)-1-(5-phenoxypyridine-2-carbonyl)piperazin-2-yl]ethan-1-ol] | 0.1
COc1cc(C(=O)N2CCC(c3cnc(N)cc3OC)CC2)ncc1OCC(C)(C)C [Compound 59, (6-Amino-4-methoxy-3′,4′,5′,6′-tetrahydro-2′H-[3,4′]bipyridinyl-1′-yl)-[5-(2,2-dimethyl-propoxy)-4-methoxy-pyridin-2-yl]-methanone] | 0.34
COc1ccc(Oc2cnc(C(=O)N3CCC(c4cc(OC)c(N)nn4)CC3)cc2OC)cc1 [Compound 60, [4-(6-Amino-5-methoxy-pyridazin-3-yl)-piperidin-1-yl]-[4-methoxy-5-(4-methoxy-phenoxy)-pyridin-2-yl]-methanone] | 0.44
COc1cc(C(=O)N2CCN(c3cnc(N)cc3OC)CC2)ncc1OCC1CC1 [Compound 61, [4-(6-Amino-4-methoxy-pyridin-3-yl)-piperazin-1-yl]-(5-cyclopropylmethoxy-4-methoxy-pyridin-2-yl)-methanone] | 0.5
COc1cc(C(=O)N2CCC(c3ccc(N)nn3)CC2)ncc1OC1CCCCC1 [Compound 62, [4-(6-Amino-pyridazin-3-yl)-piperidin-1-yl]-(5-cyclohexyloxy-4-methoxy-pyridin-2-yl)-methanone] | 0.55
COc1cc(C(=O)N2CCN(c3cnc(N)cc3OC)C[C@H]2CO)ncc1Oc1ccc(F)cc1 [Compound 63, [(S)-4-(6-Amino-4-methoxy-pyridin-3-yl)-2-hydroxymethyl-piperazin-1-yl]-[5-(4-fluoro-phenoxy)-4-methoxy-pyridin-2-yl]-methanone] | 0.67
COc1cc(C(=O)N2CCC(c3cnc(N)cc3OC)CC2)ncc1OCC1(CF)CC1 [Compound 64, (6-Amino-4-methoxy-3′,4′,5′,6′-tetrahydro-2′H-[3,4′]bipyridinyl-1′-yl)-[5-(1-fluoromethyl-cyclopropylmethoxy)-4-methoxy-pyridin-2-yl]-methanone] | 0.82
CCOc1cnc(C(=O)N2CCC(c3cnc(N)cc3OC)CC2)cc1OC [Compound 65, (6-Amino-4-methoxy-3′,4′,5′,6′-tetrahydro-2′H-[3,4′]bipyridinyl-1′-yl)-(5-ethoxy-4-methoxy-pyridin-2-yl)-methanone] | 0.83
COc1ccc(Oc2cnc(C(=O)N3CCC(c4nnc(N)cc4OC)CC3)cc2OC)cc1 [Compound 66, [4-(6-Amino-4-methoxy-pyridazin-3-yl)-piperidin-1-yl]-[4-methoxy-5-(4-methoxy-phenoxy)-pyridin-2-yl]-methanone] | 0.84
COc1cc(C(=O)N2CCC(c3ccc(N)nn3)CC2)ncc1OCCC1CC1 [Compound 67, [4-(6-Amino-pyridazin-3-yl)-piperidin-1-yl]-[5-(2-cyclopropyl-ethoxy)-4-methoxy-pyridin-2-yl]-methanone] | 0.56
COc1cc(C(=O)N2C3COCC2CC(c2cnc(N)cc2OC)C3)ncc1Oc1ccccc1 (centres unmarked) [Compound 68, [7-(6-Amino-4-methoxy-pyridin-3-yl)-3-oxa-9-aza-bicyclo[3.3.1]non-9-yl]-(4-methoxy-5-phenoxy-pyridin-2-yl)-methanone] | 0.63
COc1cc(C(=O)N2CCN(c3cnc(N)cc3OC)C[C@@H]2CO)ncc1Oc1ccccc1 [Compound 69, [(R)-4-(6-Amino-4-methoxy-pyridin-3-yl)-2-hydroxymethyl-piperazin-1-yl]-(4-methoxy-5-phenoxy-pyridin-2-yl)-methanone] | 0.63
COc1cc(C(=O)N2CCC(c3cnc(N)cc3OC)CC2)ncc1O[C@@H](C)C1CC1 [Compound 70, (6-Amino-4-methoxy-3′,4′,5′,6′-tetrahydro-2′H-[3,4′]bipyridinyl-1′-yl)-[5-((S)-1-cyclopropyl-ethoxy)-4-methoxy-pyridin-2-yl]-methanone] | 0.64
COc1cc(C(=O)N2CCN(c3cnc(N)cc3OC)C[C@H]2CO)ncc1Oc1ccccc1 [Compound 71, [(S)-4-(6-Amino-4-methoxy-pyridin-3-yl)-2-hydroxymethyl-piperazin-1-yl]-(4-methoxy-5-phenoxy-pyridin-2-yl)-methanone] | 0.85
COc1cc(C(=O)N2CCC(c3cnc(N)cc3OC)CC2)ncc1OC(C)C [Compound 72, (6-Amino-4-methoxy-3′,4′,5′,6′-tetrahydro-2′H-[3,4′]bipyridinyl-1′-yl)-(5-isopropoxy-4-methoxy-pyridin-2-yl)-methanone] | 0.91
COc1cc(C(=O)N2CCC(c3ccc(N)nn3)CC2)ncc1OCCc1ccccc1 [Compound 73, [4-(6-Amino-pyridazin-3-yl)-piperidin-1-yl]-(4-methoxy-5-phenethyloxy-pyridin-2-yl)-methanone] | 1.3
COc1cc(C(=O)N2CCC(c3ccc(N)nn3)CC2)ncc1OCC(C)(C)C [Compound 74, [4-(6-Amino-pyridazin-3-yl)-piperidin-1-yl]-[5-(2,2-dimethyl-propoxy)-4-methoxy-pyridin-2-yl]-methanone] | 1.4
COc1cc(C(=O)N2CCC(c3ccc(N)nn3)CC2)ncc1OCC1(C)CC1 [Compound 75, [4-(6-Amino-pyridazin-3-yl)-piperidin-1-yl]-[4-methoxy-5-(1-methyl-cyclopropylmethoxy)-pyridin-2-yl]-methanone] | 1.5
